Reference: US7834172B2, “Composition comprising at least one nucleosidic moiety as a therapeutic agent, and CKC” (Novagali Pharma SA, priority 2007, dated 2010)

Experiment: CKC/oligonucleotide complex formation, observation of precipitation
Format: physicochemical
Conditions: SEQ ID No. 2 solution 10 μM
From the text: CKC/Oligonucleotides complexes are formed due to the interaction of the CKC positive charges with the oligonucleotides negative charges conferred by each of the bases (18 in the case of SEQ ID No.2). The complex formation has the effect of neutralizing part of the negative charges of the oligonucleotides and to bring some lipophilic moieties to the complex. A stable complex with a balanced lipophilicity enhances the oligonucleotide penetration in the cells due to the affinity with the lipophilic cell membranes.
Stable complexes are formed without precipitation at ratios below 10/18 (CKC/oligonucleotide negative charges, the few lipophilic moieties being unable to induce the precipitation.

## SEQ ID No. 2: 18 mer-phosphorotioate oligonucleotide, 5′-3′ sequence ACT CAT ATT CAT AGG GTG (DNA ACTCATATTCATAGGGTG; all phosphorothioate, sugars by position and methylation of C not given here; further chemistry not fully specified)
Ratio CKC/negative charges 0.05, CKC 10 μM
  Observation (precipitation): No precipitation
Ratio CKC/negative charges 0.27, CKC 50 μM
  Observation (precipitation): No precipitation
Ratio CKC/negative charges 0.55, CKC 100 μM
  Observation (precipitation): No precipitation
Ratio CKC/negative charges 0.83, CKC 150 μM
  Observation (precipitation): ↓
Ratio CKC/negative charges 1.11, CKC 200 μM
  Observation (precipitation): ↓
Ratio CKC/negative charges 1.66, CKC 300 μM
  Observation (precipitation): ↓
Ratio CKC/negative charges 2.22, CKC 400 μM
  Observation (precipitation): ↓
Ratio CKC/negative charges 2.77, CKC 500 μM
  Observation (precipitation): ↓
Ratio CKC/negative charges 4.17, CKC 750 μM
  Observation (precipitation): ↓↓
Ratio CKC/negative charges 5.55, CKC 1000 μM
  Observation (precipitation): ↓↓↓
Ratio CKC/negative charges 55.55, CKC 10000 μM
  Observation (precipitation): ↓↓↓
